Test system: patients with advanced solid tumors
Test: Safety: treatment-emergent and senaparib-related adverse events graded per NCI CTCAE v4.03
Assay type: in vivo
Conditions: TEAE
Description: This phase I, open-label, multicenter, dose-escalation, and dose-expansion study was conducted at three national clinical institutions in China. […] At baseline, all patients enrolled in the dose-escalation phase had to have at least one evaluable lesion, and those in the dose-expansion period had to have at least one measurable lesion, according to Response Evaluation Criteria in Solid Tumors version 1.1 (RECIST v1.1).[16] Entry to the dose-expansion cohort required the presence of a BRCA mutation, with the exception of patients with ovarian carcinoma, fallopian tube carcinoma, and primary peritoneal carcinoma. Full study eligibility criteria are provided in Supplementary Table S1.
Dose escalation was conducted using a modified Fibonacci 3 + 3 method (Supplementary Fig. S1).[17] Patients were administered oral senaparib from a planned starting dose of 2 mg once daily (QD), with preliminary dose escalation to 120 mg via nine dose groups, in order of their entry into the study. At a given dose level, each patient received a single dose of senaparib followed by a 7-day washout period. They then entered a continuous dosing period to confirm the safety and PK profile, in which they received senaparib QD from day 1 to day 21 of each 3-week cycle. Progression to the next higher dose required approval from the Data Safety Monitoring Committee (DSMC) upon review of the safety and PK data of the previous dose. A 50-mg twice-daily (BID) dosing group was added (planned enrollment, n = 6 patients) based on a DSMC review of the safety, PK, and efficacy analysis of the completed QD dose groups in the phase I clinical trial of senaparib dose escalation in Australia (NCT03507543), which commenced prior to the start of this trial.
The dose-expansion period included 3 populations: dose groups in which at least one patient achieved complete response (CR) or partial response (PR) per RECIST v1.1[16] and 1 dose group higher (evaluated for safety), as well as the dose group at the maximum tolerated dose (MTD)/recommended phase II dose (RP2D). Each of these groups included those patients in the respective dose-escalation group plus a planned additional 10 patients (approximately 20 patients in the MTD/RP2D group) with BRCA^mut+ solid tumors (ovarian, breast, or prostate cancer were preferred, and ovarian cancer could be BRCA wild type). Patients received senaparib monotherapy orally QD or BID (50-mg dose only) over each 3-week cycle until disease progression or unacceptable toxicity.
DLTs were predefined toxicities (Supplementary Table S2) recorded over the 7 days following the single-dose administration of senaparib and during the first treatment cycle (day 1-day 21) for each dose group in the dose-escalation period only. The MTD was defined as the maximum dose at which ≤1/6 patients experienced a DLT. Senaparib PK parameters were derived from blood samples collected from patients after the single administration, and at regular intervals during the first cycle of the dose-escalation and dose-expansion periods. Plasma concentrations of senaparib were determined using high-performance liquid chromatography-tandem mass spectrometry. Tumor response was assessed every 6 weeks per RECIST v1.1,[16] recording objective response rate (ORR), disease control rate (DCR), duration of response (DOR), and progression-free survival (PFS) by dose level for all patients and for those harboring BRCA^mut+ tumors.

SMILES: O=C(c1cc(Cn2c(=O)[nH]c(=O)c3c(F)cccc32)ccc1F)N1CCN(c2ncccn2)CC1 [Senaparib]
- Asthenia, Gr≥3 (60 mg QD n = 5): 0 n (%)
- Blood bilirubin increased, All (60 mg QD n = 5): 0 n (%)
- Blood bilirubin increased, Gr≥3 (60 mg QD n = 5): 0 n (%)
- Blood creatinine increased, All (60 mg QD n = 5): 1 (20.0) n (%)
- Blood creatinine increased, Gr≥3 (60 mg QD n = 5): 0 n (%)
- Hypokalemia, All (60 mg QD n = 5): 1 (20.0) n (%)
- Hypokalemia, Gr≥3 (60 mg QD n = 5): 0 n (%)
- Hyponatremia, All (60 mg QD n = 5): 1 (20.0) n (%)
- Hyponatremia, Gr≥3 (60 mg QD n = 5): 0 n (%)
- Nausea, All (60 mg QD n = 5): 1 (20.0) n (%)
- Nausea, Gr≥3 (60 mg QD n = 5): 0 n (%)
- Neutrophil count decreased, All (60 mg QD n = 5): 1 (20.0) n (%)
- Neutrophil count decreased, Gr≥3 (60 mg QD n = 5): 0 n (%)
- Pain in extremity, All (60 mg QD n = 5): 0 n (%)
- Pain in extremity, Gr≥3 (60 mg QD n = 5): 0 n (%)
- Platelet count decreased, All (60 mg QD n = 5): 2 (40.0) n (%)
- Platelet count decreased, Gr≥3 (60 mg QD n = 5): 0 n (%)
- Protein in urine, All (60 mg QD n = 5): 1 (20.0) n (%)
- Protein in urine, Gr≥3 (60 mg QD n = 5): 0 n (%)
- Vomiting, All (60 mg QD n = 5): 1 (20.0) n (%)
- Vomiting, Gr≥3 (60 mg QD n = 5): 1 (20.0) n (%)
- WBC decreased, All (60 mg QD n = 5): 2 (40.0) n (%)
- WBC decreased, Gr≥3 (60 mg QD n = 5): 0 n (%)
- ALT increased, All (80 mg QD n = 9): 1 (11.1) n (%)
- ALT increased, Gr≥3 (80 mg QD n = 9): 0 n (%)
- AST increased, All (80 mg QD n = 9): 2 (22.2) n (%)
- AST increased, Gr≥3 (80 mg QD n = 9): 0 n (%)
- Abdominal distension, All (80 mg QD n = 9): 3 (33.3) n (%)
- Abdominal distension, Gr≥3 (80 mg QD n = 9): 0 n (%)
- Anemia (incl. hemoglobin decreased), All (80 mg QD n = 9): 7 (77.8) n (%)
- Anemia (incl. hemoglobin decreased), Gr≥3 (80 mg QD n = 9): 3 (33.3) n (%)
- Appetite decreased, All (80 mg QD n = 9): 3 (33.3) n (%)
- Appetite decreased, Gr≥3 (80 mg QD n = 9): 0 n (%)
- Asthenia, All (80 mg QD n = 9): 2 (22.2) n (%)
- Asthenia, Gr≥3 (80 mg QD n = 9): 0 n (%)
- Blood bilirubin increased, All (80 mg QD n = 9): 2 (22.2) n (%)
- Blood bilirubin increased, Gr≥3 (80 mg QD n = 9): 0 n (%)
- Blood creatinine increased, All (80 mg QD n = 9): 2 (22.2) n (%)
- Blood creatinine increased, Gr≥3 (80 mg QD n = 9): 0 n (%)
- Hypokalemia, All (80 mg QD n = 9): 3 (33.3) n (%)
- Hypokalemia, Gr≥3 (80 mg QD n = 9): 0 n (%)
- Hyponatremia, All (80 mg QD n = 9): 1 (11.1) n (%)
- Hyponatremia, Gr≥3 (80 mg QD n = 9): 0 n (%)
- Nausea, All (80 mg QD n = 9): 4 (44.4) n (%)
- Nausea, Gr≥3 (80 mg QD n = 9): 0 n (%)
- Neutrophil count decreased, All (80 mg QD n = 9): 4 (44.4) n (%)
- Neutrophil count decreased, Gr≥3 (80 mg QD n = 9): 1 (11.1) n (%)
- Pain in extremity, All (80 mg QD n = 9): 2 (22.2) n (%)
- Pain in extremity, Gr≥3 (80 mg QD n = 9): 0 n (%)
- Platelet count decreased, All (80 mg QD n = 9): 4 (44.4) n (%)
- Platelet count decreased, Gr≥3 (80 mg QD n = 9): 2 (22.2) n (%)
- Protein in urine, All (80 mg QD n = 9): 0 n (%)
- Protein in urine, Gr≥3 (80 mg QD n = 9): 0 n (%)
- Vomiting, All (80 mg QD n = 9): 3 (33.3) n (%)
- Vomiting, Gr≥3 (80 mg QD n = 9): 1 (11.1) n (%)
- WBC decreased, All (80 mg QD n = 9): 5 (55.6) n (%)
- WBC decreased, Gr≥3 (80 mg QD n = 9): 1 (11.1) n (%)
- ALT increased, All (100 mg QD n = 20): 5 (25.0) n (%)
- ALT increased, Gr≥3 (100 mg QD n = 20): 0 n (%)
- AST increased, All (100 mg QD n = 20): 4 (20.0) n (%)
- AST increased, Gr≥3 (100 mg QD n = 20): 1 (5.0) n (%)
- Abdominal distension, All (100 mg QD n = 20): 0 n (%)
- Abdominal distension, Gr≥3 (100 mg QD n = 20): 0 n (%)
- Anemia (incl. hemoglobin decreased), All (100 mg QD n = 20): 11 (55.0) n (%)
- Anemia (incl. hemoglobin decreased), Gr≥3 (100 mg QD n = 20): 4 (20.0) n (%)
- Appetite decreased, All (100 mg QD n = 20): 5 (25.0) n (%)
- Appetite decreased, Gr≥3 (100 mg QD n = 20): 0 n (%)
- Asthenia, All (100 mg QD n = 20): 5 (25.0) n (%)
- Asthenia, Gr≥3 (100 mg QD n = 20): 0 n (%)
- Blood bilirubin increased, All (100 mg QD n = 20): 3 (15.0) n (%)
- Blood bilirubin increased, Gr≥3 (100 mg QD n = 20): 0 n (%)
- Blood creatinine increased, All (100 mg QD n = 20): 2 (10.0) n (%)
- Blood creatinine increased, Gr≥3 (100 mg QD n = 20): 0 n (%)
- Hypokalemia, All (100 mg QD n = 20): 0 n (%)
- Hypokalemia, Gr≥3 (100 mg QD n = 20): 0 n (%)
- Hyponatremia, All (100 mg QD n = 20): 2 (10.0) n (%)
- Hyponatremia, Gr≥3 (100 mg QD n = 20): 0 n (%)
- Nausea, All (100 mg QD n = 20): 4 (20.0) n (%)
- Nausea, Gr≥3 (100 mg QD n = 20): 0 n (%)
- Neutrophil count decreased, All (100 mg QD n = 20): 5 (25.0) n (%)
- Neutrophil count decreased, Gr≥3 (100 mg QD n = 20): 2 (10.0) n (%)
- Pain in extremity, All (100 mg QD n = 20): 2 (10.0) n (%)
- Pain in extremity, Gr≥3 (100 mg QD n = 20): 0 n (%)
- Platelet count decreased, All (100 mg QD n = 20): 6 (30.0) n (%)
- Platelet count decreased, Gr≥3 (100 mg QD n = 20): 1 (5.0) n (%)
- Protein in urine, All (100 mg QD n = 20): 2 (10.0) n (%)
- Protein in urine, Gr≥3 (100 mg QD n = 20): 0 n (%)
- Vomiting, All (100 mg QD n = 20): 5 (25.0) n (%)
- Vomiting, Gr≥3 (100 mg QD n = 20): 0 n (%)
- WBC decreased, All (100 mg QD n = 20): 9 (45.0) n (%)
- WBC decreased, Gr≥3 (100 mg QD n = 20): 1 (5.0) n (%)
- ALT increased, All (120 mg QD n = 4): 2 (50.0) n (%)
- ALT increased, Gr≥3 (120 mg QD n = 4): 1 (25.0) n (%)
- AST increased, All (120 mg QD n = 4): 2 (50.0) n (%)
- AST increased, Gr≥3 (120 mg QD n = 4): 0 n (%)
- Abdominal distension, All (120 mg QD n = 4): 0 n (%)
- Abdominal distension, Gr≥3 (120 mg QD n = 4): 0 n (%)
- Anemia (incl. hemoglobin decreased), All (120 mg QD n = 4): 3 (75.0) n (%)
- Anemia (incl. hemoglobin decreased), Gr≥3 (120 mg QD n = 4): 1 (25.0) n (%)
- Appetite decreased, All (120 mg QD n = 4): 1 (25.0) n (%)
- Appetite decreased, Gr≥3 (120 mg QD n = 4): 0 n (%)
- Asthenia, All (120 mg QD n = 4): 2 (50.0) n (%)
- Asthenia, Gr≥3 (120 mg QD n = 4): 0 n (%)
- Blood bilirubin increased, All (120 mg QD n = 4): 2 (50.0) n (%)
- Blood bilirubin increased, Gr≥3 (120 mg QD n = 4): 1 (25.0) n (%)
- Blood creatinine increased, All (120 mg QD n = 4): 1 (25.0) n (%)
- Blood creatinine increased, Gr≥3 (120 mg QD n = 4): 0 n (%)
- Hypokalemia, All (120 mg QD n = 4): 0 n (%)
- Hypokalemia, Gr≥3 (120 mg QD n = 4): 0 n (%)
- Hyponatremia, All (120 mg QD n = 4): 0 n (%)
- Hyponatremia, Gr≥3 (120 mg QD n = 4): 0 n (%)
- Nausea, All (120 mg QD n = 4): 1 (25.0) n (%)
- Nausea, Gr≥3 (120 mg QD n = 4): 0 n (%)
- Neutrophil count decreased, All (120 mg QD n = 4): 1 (25.0) n (%)
- Neutrophil count decreased, Gr≥3 (120 mg QD n = 4): 0 n (%)
- Pain in extremity, All (120 mg QD n = 4): 1 (25.0) n (%)

From PMC10712727, “Safety, Tolerability, and Pharmacokinetics of Senaparib, a Novel PARP1/2 Inhibitor, in Chinese Patients With Advanced Solid Tumors: A Phase I Trial” (The Oncologist, 2023)
